Measurements: paper PMC8843100, “Development of newly synthesised quinazolinone-based CDK2 inhibitors with potent efficacy against melanoma” (Journal of Enzyme Inhibition and Medicinal Chemistry, 2022)

Tests used:
Assay in all cases: NCI-60 single dose screen, sulforhodamine B
Format in all cases: cell-based, human
[1] = system: UACC-257; conditions: Melanoma UACC-257; single dose 10^−5 M
In short: (§1)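 10 µM single-point, 48 h-equivalent 2-day exposure after 1-day attachment; SRB read on fixed cells; % relative to no-drug and T0.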

[2] = system: SN12C; conditions: Renal cancer SN12C; single dose 10^−5 M
In short: as §1

[3] = system: U251; conditions: CNS cancer U251; single dose 10^−5 M
In short: as §1

[4] = system: NCI-H460; conditions: Non-small cell lung cancer NCI-H460; single dose 10^−5 M
In short: as §1

[5] = system: NCI/ADR-RES; conditions: Ovarian cancer NCI/ADR-RES; single dose 10^−5 M
In short: as §1

[6] = system: NCI-H522; conditions: Non-small cell lung cancer NCI-H522; single dose 10^−5 M
In short: as §1

[7] = system: SNB-75; conditions: CNS cancer SNB-75; single dose 10^−5 M
In short: as §1

[8] = system: MDA-MB-231/ATCC; conditions: Breast cancer MDA-MB-231/ATCC; single dose 10^−5 M
In short: as §1

[9] = system: HCT-15; conditions: Colon cancer HCT-15; single dose 10^−5 M
In short: as §1

[10] = system: HS 578T; conditions: Breast cancer HS 578T; single dose 10^−5 M
In short: as §1

[11] = system: UACC-62; conditions: Melanoma UACC-62; single dose 10^−5 M
In short: as §1

[12] = system: OVCAR-8; conditions: Ovarian cancer OVCAR-8; single dose 10^−5 M
In short: as §1

[13] = system: SR; conditions: Leukaemia SR; single dose 10^−5 M
In short: as §1

[14] = system: BT-549; conditions: Breast cancer BT-549; single dose 10^−5 M
In short: as §1

[15] = system: OVCAR-3; conditions: Ovarian cancer OVCAR-3; single dose 10^−5 M
In short: as §1

[16] = system: MOLT-4; conditions: Leukaemia MOLT-4; single dose 10^−5 M
In short: as §1

[17] = system: ACHN; conditions: Renal cancer ACHN; single dose 10^−5 M
In short: as §1

[18] = system: SF-295; conditions: CNS cancer SF-295; single dose 10^−5 M
In short: as §1

[19] = system: RPMI-8226; conditions: Leukaemia RPMI-8226; single dose 10^−5 M
In short: as §1

[20] = system: MALME-3M; conditions: Melanoma MALME-3M; single dose 10^−5 M
In short: as §1

[21] = system: COLO 205; conditions: Colon cancer COLO 205; single dose 10^−5 M
In short: as §1

[22] = system: CAKI-1; conditions: Renal cancer CAKI-1; single dose 10^−5 M
In short: as §1

[23] = system: RXF 393; conditions: Renal cancer RXF 393; single dose 10^−5 M
In short: as §1

| SMILES | GI% at 10^−5 M [1] | GI% at 10^−5 M [2] | GI% at 10^−5 M [3] | GI% at 10^−5 M [4] | GI% at 10^−5 M [5] | GI% at 10^−5 M [6] | GI% at 10^−5 M [7] | GI% at 10^−5 M [8] | GI% at 10^−5 M [9] | GI% at 10^−5 M [10] | GI% at 10^−5 M [11] | GI% at 10^−5 M [12] | GI% at 10^−5 M [13] | GI% at 10^−5 M [14] | GI% at 10^−5 M [15] | GI% at 10^−5 M [16] | GI% at 10^−5 M [17] | GI% at 10^−5 M [18] | GI% at 10^−5 M [19] | GI% at 10^−5 M [20] | also measured |
| --- | --- | --- | --- | --- | --- | --- | --- | --- | --- | --- | --- | --- | --- | --- | --- | --- | --- | --- | --- | --- | --- |
| COc1cc(C=Nn2c(COc3ccccc3)nc3ccccc3c2=O)ccc1O [Compound 6a, 3-((4-hydroxy-3-methoxybenzylidene)amino)-2-(phenoxymethyl)quinazolin-4(3H)-one] | – (– means GI < 10%) | 10.37% | – (– means GI < 10%) | – (– means GI < 10%) | – (– means GI < 10%) | 16.82% | 13.12% | 10.92% | – (– means GI < 10%) | – (– means GI < 10%) | – (– means GI < 10%) | – (– means GI < 10%) | – (– means GI < 10%) | – (– means GI < 10%) | – (– means GI < 10%) | – (– means GI < 10%) | – (– means GI < 10%) | – (– means GI < 10%) | – (– means GI < 10%) | – (– means GI < 10%) | GI% at 10^−5 M [21]: – (– means GI < 10%); GI% at 10^−5 M [22]: – (– means GI < 10%); GI% at 10^−5 M [23]: – (– means GI < 10%) |
| O=c1c2ccccc2nc(COc2ccccc2)n1N=CC=Cc1ccccc1 [Compound 6b, 2-(phenoxymethyl)-3-((3-phenylallylidene)amino)quinazolin-4(3H)-one] | – (– means GI < 10%) | 12.39% | – (– means GI < 10%) | – (– means GI < 10%) | – (– means GI < 10%) | 18.6% | 16.57% | – (– means GI < 10%) | 23.15% | – (– means GI < 10%) | – (– means GI < 10%) | – (– means GI < 10%) | 14.34% | – (– means GI < 10%) | – (– means GI < 10%) | – (– means GI < 10%) | – (– means GI < 10%) | – (– means GI < 10%) | 12.52% | – (– means GI < 10%) | GI% at 10^−5 M [21]: – (– means GI < 10%); GI% at 10^−5 M [22]: – (– means GI < 10%); GI% at 10^−5 M [23]: – (– means GI < 10%) |
| CN1CCN(CC(=O)Nn2c(COc3ccccc3)nc3ccccc3c2=O)CC1 [Compound 8a, 2–(4-methylpiperazin-1-yl)-N-(4-oxo-2-(phenoxymethyl)quinazolin-3(4H)-yl)acetamide] | – (– means GI < 10%) | – (– means GI < 10%) | 18.55% | – (– means GI < 10%) | 28.41% | 24.6% | 27.37% | 21.65% | 44.04% | 13.94% | 30.69% | – (– means GI < 10%) | 69.55% | – (– means GI < 10%) | – (– means GI < 10%) | 11.86% | – (– means GI < 10%) | – (– means GI < 10%) | 23.17% | 20.47% | GI% at 10^−5 M [21]: 15.89%; GI% at 10^−5 M [22]: 28.85%; GI% at 10^−5 M [23]: – (– means GI < 10%) |
| O=C(CN1CCN(c2ccccc2)CC1)Nn1c(COc2ccccc2)nc2ccccc2c1=O [Compound 8b, N-(4-oxo-2-(phenoxymethyl)quinazolin-3(4H)-yl)-2–(4-phenylpiperazin-1-yl)acetamid] | – (– means GI < 10%) | – (– means GI < 10%) | – (– means GI < 10%) | – (– means GI < 10%) | – (– means GI < 10%) | 11.45% | – (– means GI < 10%) | 10.38% | – (– means GI < 10%) | 10.4% | – (– means GI < 10%) | – (– means GI < 10%) | – (– means GI < 10%) | – (– means GI < 10%) | – (– means GI < 10%) | – (– means GI < 10%) | – (– means GI < 10%) | – (– means GI < 10%) | – (– means GI < 10%) | – (– means GI < 10%) | GI% at 10^−5 M [21]: – (– means GI < 10%); GI% at 10^−5 M [22]: – (– means GI < 10%); GI% at 10^−5 M [23]: – (– means GI < 10%) |
| COc1ccc(N2CCN(CC(=O)Nn3c(COc4ccccc4)nc4ccccc4c3=O)CC2)cc1 [Compound 8c, 2–(4-(4-methoxyphenyl)piperazin-1-yl)-N-(4-oxo-2-(phenoxymethyl)quinazolin-3(4H)-yl)acetamide] | – (– means GI < 10%) | – (– means GI < 10%) | – (– means GI < 10%) | – (– means GI < 10%) | – (– means GI < 10%) | 10.67% | 26.47% | – (– means GI < 10%) | – (– means GI < 10%) | – (– means GI < 10%) | – (– means GI < 10%) | – (– means GI < 10%) | 12.84% | – (– means GI < 10%) | – (– means GI < 10%) | – (– means GI < 10%) | – (– means GI < 10%) | – (– means GI < 10%) | – (– means GI < 10%) | – (– means GI < 10%) | GI% at 10^−5 M [21]: – (– means GI < 10%); GI% at 10^−5 M [22]: – (– means GI < 10%); GI% at 10^−5 M [23]: – (– means GI < 10%) |
